Experimental data from patent US10184115B2, “Mutated cellobiose dehydrogenase with increased substrate specificity” (DIRECTSENS GMBH, priority 2012, dated 2019).

Target: T1, Myriococcum thermophilum cellobiose dehydrogenase (CDH, SEQ ID NO: 1) variant N721D (Thermothelomyces myriococcoides, UniProt A9XK88, N721D)
T1 sequence (A9XK88 22-828 N721D): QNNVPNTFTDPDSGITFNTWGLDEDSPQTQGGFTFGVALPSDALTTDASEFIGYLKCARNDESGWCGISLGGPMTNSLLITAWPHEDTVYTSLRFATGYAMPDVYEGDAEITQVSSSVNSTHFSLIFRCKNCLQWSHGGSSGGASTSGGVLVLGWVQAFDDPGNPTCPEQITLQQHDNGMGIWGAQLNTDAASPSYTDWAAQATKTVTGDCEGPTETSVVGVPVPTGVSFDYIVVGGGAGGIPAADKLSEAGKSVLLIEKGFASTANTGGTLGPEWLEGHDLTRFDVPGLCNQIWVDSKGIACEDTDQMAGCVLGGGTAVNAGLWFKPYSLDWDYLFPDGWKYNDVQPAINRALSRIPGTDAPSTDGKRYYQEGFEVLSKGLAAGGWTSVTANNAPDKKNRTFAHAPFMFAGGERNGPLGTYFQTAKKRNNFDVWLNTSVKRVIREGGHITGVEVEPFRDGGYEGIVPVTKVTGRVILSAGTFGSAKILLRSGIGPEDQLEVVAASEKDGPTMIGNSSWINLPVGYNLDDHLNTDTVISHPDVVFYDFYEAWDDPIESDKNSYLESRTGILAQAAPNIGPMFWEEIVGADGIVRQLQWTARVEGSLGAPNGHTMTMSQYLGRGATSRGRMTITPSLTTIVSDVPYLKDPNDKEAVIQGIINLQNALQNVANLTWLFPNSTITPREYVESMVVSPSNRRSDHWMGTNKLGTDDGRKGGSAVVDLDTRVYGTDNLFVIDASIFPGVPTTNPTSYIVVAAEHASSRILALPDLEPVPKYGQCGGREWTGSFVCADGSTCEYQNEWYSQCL
Test: Steady-state kinetics, DCIP assay: M. thermophilum CDH N721D
Type: biochemical
Conditions: apparent, pH 4.5, 30° C.
Experimental: Enzyme activity was assayed at 30° C. using either the DCIP (Karapetyan et al., 2005 Journal of Biotechnology 121: 34-48) or cytochrome c (Canevascini et al., 1991, European Journal of Biochemistry 198: 43-52) as electron acceptor. […] Stock solutions of carbohydrates used for kinetic measurements were prepared in the respective buffer and allowed to stand overnight for mutarotation, while stock solutions of electron acceptors were prepared in water and immediately used. The reaction stoichiometry is 1 for the two-electron acceptor DCIP (1 mole of DCIP reduced per mole of carbohydrate oxidized), but 2 for the one-electron acceptor cytochrome c. Kinetic constants were calculated by fitting the observed data to the Henri-Michaelis-Menten equation or to the adapted model for substrate inhibition using nonlinear least-squares regression and the program SigmaPlot (Systat Software, San Jose, Calif., USA). […]
Recombinant wild-type CDH as well as variants were produced in 1 L baffled flasks. […] Increase in activity was monitored using the DCIP and the cytochrome c enzyme assays. […]
The sample was loaded on a 20 mL PHE Sepharose FF column (HR26/20) equilibrated with 50 mM Na-acetate buffer pH 5.5 containing 20% ammonium sulfate. […] Fractions were tested for CDH activity and pooled according to the highest Reinheitszahl (RZ, calculated from the absorbance ratio 420 nm/280 nm). […]

OC[C@H]1OC(O)[C@H](O)[C@@H](O)[C@@H]1O (some centres unmarked) [Glucose, glucose]
kcat: 1.9 s⁻¹ | kcat/KM: 5.9 M⁻¹ s⁻¹
